Source: ChEMBL document CHEMBL3714732, “Small molecule modulators of g protein-coupled receptor six” (2001)
Blank lines part the entries; values can stand above or below the molecule they belong to. Active and inactive are the calls of the source. The rule behind the calls is not given here.

Legend:
[1] = target: T1, G-protein coupled receptor 6 (Homo sapiens, UniProt P46095); assay: Inverse agonist activity at rat G-protein GSalpha fused GPR6 (unknown origin) expressed in HEK293 cell membranes assessed as cAMP accumulation pre-incubated for 30 mins by microbeta plate reader based assay; format: functional
T1 sequence (P46095 whole entry, the tested form may be a part): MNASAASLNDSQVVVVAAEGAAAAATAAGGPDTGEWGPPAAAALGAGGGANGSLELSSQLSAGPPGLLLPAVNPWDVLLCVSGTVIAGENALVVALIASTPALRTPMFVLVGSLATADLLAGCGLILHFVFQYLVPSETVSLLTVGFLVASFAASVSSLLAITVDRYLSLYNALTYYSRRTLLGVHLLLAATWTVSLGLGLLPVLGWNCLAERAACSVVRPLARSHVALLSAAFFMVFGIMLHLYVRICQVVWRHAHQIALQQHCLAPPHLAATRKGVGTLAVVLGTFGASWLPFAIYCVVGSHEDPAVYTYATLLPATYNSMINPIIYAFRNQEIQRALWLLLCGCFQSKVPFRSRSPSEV

[2] = target: T1, G-protein coupled receptor 6; assay: Inverse agonist activity at rat G-protein GSalpha fused GPR6 (unknown origin) expressed in HEK293 cell membranes assessed as effect on [35S]GTPgammaS binding pre-incubated for 5 to 10 mins followed by 60 mins incubation in presence of [35S]GTPgammaS by scintillation proximity assay; format: functional
[3] = test system: Rattus norvegicus; assay: Reduction in body weight gain in 24 hrs food-deprived Sprague-Dawley rat assessed as body weight at 100 umol/kg, po followed by standard chow pellets feeding and measured 8 hrs post dose (reference value: 19.5g); format: functional
[4] = test system: Rattus norvegicus; assay: Reduction in food intake in 24 hrs food-deprived Sprague-Dawley rat assessed as food intake level per 2 hrs at 100 umol/kg, po followed by standard chow pellets feeding and measured 8 hrs post dose (reference value: 2 to 2.5g/2 hrs); format: functional
[5] = test system: Rattus norvegicus; assay: Reduction in water intake in 24 hrs food-deprived Sprague-Dawley rat assessed as water intake level at 100 umol/kg, po followed by standard chow pellets feeding and measured 8 hrs post dose (reference value: 19g); format: functional
[6] = test system: Rattus norvegicus; assay: Reduction in water intake in 24 hrs food-deprived Sprague-Dawley rat assessed as water intake level at 100 umol/kg, po followed by standard chow pellets feeding and measured 6 hrs post dose (reference value: 19.25 to 22.9g); format: functional
[7] = test system: Rattus norvegicus; assay: Reduction in food intake in 24 hrs food-deprived Sprague-Dawley rat assessed as food intake level at 100 umol/kg, po followed by standard chow pellets feeding and measured 8 hrs post dose (reference value: 14 to 14.5g); format: functional
[8] = test system: Rattus norvegicus; assay: Reduction in body weight gain in 24 hrs food-deprived Sprague-Dawley rat assessed as body weight gain level at 100 umol/kg, po followed by standard chow pellets feeding and measured 6 hrs post dose (reference value: 19.25 to 20.3g); format: functional
[9] = test system: Rattus norvegicus; assay: Reduction in food intake in 24 hrs food-deprived Sprague-Dawley rat assessed as food intake level at 27 mg/kg, po followed by standard chow pellets feeding and measured 2.5 hrs post dose (reference value: 6g); format: functional
[10] = test system: Rattus norvegicus; assay: Reduction in body weight gain in non-food-deprived Sprague-Dawley rat at 13.5 mg/kg, ip qd for 22 days measured between day-31 and day-60 post dose; format: functional, organism-based
[11] = test system: Rattus norvegicus; assay: Reduction in food intake in 24 hrs food-deprived Sprague-Dawley rat assessed as food intake level at 54 mg/kg, ip followed by standard chow pellets feeding and measured 1.5 hrs post dose (reference value: 6g); format: functional
[12] = test system: Rattus norvegicus; assay: Induction of sedation in non-food-deprived Sprague-Dawley rat subjected to pre-pulse of 12 db followed by 120 db pulse assessed as animal jump height level at 6.75 mg/kg, po dosed 4.5 hrs before test; format: organism-based; conditions: in vivo
[13] = test system: Rattus norvegicus; assay: Reduction in food intake in 24 hrs food-deprived Sprague-Dawley rat assessed as food intake level at 27 mg/kg, po followed by standard chow pellets feeding and measured 8 hrs post dose (reference value: 14g); format: functional
[14] = test system: Rattus norvegicus; assay: Reduction in water intake in 24 hrs food-deprived Sprague-Dawley rat assessed water intake level at 25 and 50 nmol, icv (reference value: 17 g); format: functional
[15] = test system: Rattus norvegicus; assay: Reduction in food intake in 24 hrs food-deprived Sprague-Dawley rat assessed as food intake level at 54 mg/kg, ip followed by standard chow pellets feeding and measured 6.5 hrs post dose (reference value: =<14g); format: functional
[16] = test system: Rattus norvegicus; assay: Reduction in food intake in 24 hrs food-deprived Sprague-Dawley rat assessed as food intake level at 54 mg/kg, po followed by standard chow pellets feeding and measured 8 hrs post dose (reference value: 14g); format: functional
[17] = test system: Rattus norvegicus; assay: Reduction in food intake in non-food-deprived Sprague-Dawley rat assessed as food intake level at 54 mg/kg, ip dosed 30 mins before beginning of dark cycle followed by exposure to standard chow pellets and measured 4 hrs post dose (reference value: 9g); format: functional
[18] = test system: Rattus norvegicus; assay: Reduction in body weight gain in 24 hrs food-deprived Sprague-Dawley rat assessed as body weight level at 27 mg/kg, ip followed by standard chow pellets feeding and measured 6.5 hrs post dose; format: functional, organism-based
[19] = test system: Rattus norvegicus; assay: Reduction in body weight gain in 24 hrs food-deprived Sprague-Dawley rat assessed as body weight level at 13.5 mg/kg, ip followed by standard chow pellets feeding and measured 6.5 hrs post dose (reference value: 20g); format: functional
[20] = test system: Rattus norvegicus; assay: Reduction in body weight gain in non-food-deprived Sprague-Dawley rat at 6.75 to 54 mg/kg, ip dosed 30 mins before beginning of dark cycle followed by exposure to standard chow pellets and measured 15.5 hrs post dose; format: functional, organism-based
[21] = test system: Rattus norvegicus; assay: Reduction in water intake in 24 hrs food-deprived Sprague-Dawley rat assessed as at 27 mg/kg, ip followed by standard chow pellets feeding and measured 6.5 hrs post dose relative to control; format: functional
[22] = test system: Rattus norvegicus; assay: Reduction in food intake in 24 hrs food-deprived Sprague-Dawley rat at 25 to 100 nmol, icv measured after 2 hrs post dose; format: functional
[23] = test system: Rattus norvegicus; assay: Reduction in water intake in non-food-deprived Sprague-Dawley rat at 6.75 to 54 mg/kg, ip dosed 30 mins before beginning of dark cycle followed by exposure to standard chow pellets and measured 15.5 hrs post dose; format: functional, organism-based
[24] = test system: Rattus norvegicus; assay: Reduction in food intake in non-food-deprived Sprague-Dawley rat at 6.5 to 54 mg/kg, po followed by standard chow pellets feeding and measured 18 hrs post dose relative to control; format: functional
[25] = test system: Rattus norvegicus; assay: Reduction in food intake in 24 hrs food-deprived Sprague-Dawley rat assessed as food intake level at 54 mg/kg, po followed by standard chow pellets feeding and measured 2.5 hrs post dose (reference value: 6g); format: functional
[26] = test system: Rattus norvegicus; assay: Reduction in food intake in 24 hrs food-deprived Sprague-Dawley rat dosed orally followed by standard chow pellets feeding; format: functional, organism-based
[27] = test system: Rattus norvegicus; assay: Reduction in food intake in non-food-deprived Sprague-Dawley rat assessed as food intake level at 6.5 to 54 mg/kg, po followed by standard chow pellets feeding and measured 18 hrs post dose (reference value: 15g); format: functional
[28] = test system: Rattus norvegicus; assay: Reduction in food intake in non-food-deprived Sprague-Dawley rat assessed as food intake level at 13.5 mg/kg, ip dosed 30 mins before beginning of dark cycle followed by exposure to standard chow pellets and measured 4 hrs post dose (reference value: 9g); format: functional
[29] = test system: Rattus norvegicus; assay: Induction of sedation in ip dosed Sprague-Dawley rat assessed as relaxed behavior after 16 hrs post dose; format: organism-based; conditions: in vivo
[30] = test system: Rattus norvegicus; assay: Reduction in body weight gain in non-food-deprived Sprague-Dawley rat at 13.5 mg/kg, ip qd for 22 days measured between day-4 and day-31 post dose; format: functional, organism-based
[31] = test system: Rattus norvegicus; assay: Reduction in water intake in 24 hrs food-deprived Sprague-Dawley rat at 100 nmol, icv; format: functional
[32] = test system: Rattus norvegicus; assay: Reduction in body weight gain in non-food-deprived Sprague-Dawley rat at 13.5 mg/kg, ip qd for 22 days measured on day-1 and day-3 post dose; format: functional, organism-based
[33] = species on record: Rattus norvegicus; assay: Effect on motor function in Sprague-Dawley rat assessed as effect on locomotor activity for 1.5 hrs tested immediately after compound dose; format: organism-based; conditions: in vivo
[34] = test system: Rattus norvegicus; assay: Reduction in body weight gain in 24 hrs food-deprived Sprague-Dawley rat assessed as body weight level at 54 mg/kg, ip followed by standard chow pellets feeding and measured 6.5 hrs post dose; format: functional, organism-based
[35] = test system: Rattus norvegicus; assay: Reduction in food intake in 24 hrs food-deprived Sprague-Dawley rat assessed food intake level at 25 to 100 nmol, icv measured 3 hrs post dose (reference value: 2.5g); format: functional
[36] = test system: Rattus norvegicus; assay: Reduction in water intake in 24 hrs food-deprived Sprague-Dawley rat at 54 mg/kg, ip followed by standard chow pellets feeding and measured 6.5 hrs post dose relative to control; format: functional
[37] = test system: Rattus norvegicus; assay: Induction of sedation in ip dosed Sprague-Dawley rat assessed as absence of anxiety like behavior after 16 hrs post dose; format: organism-based; conditions: in vivo
[38] = test system: Rattus norvegicus; assay: Reduction in body weight gain in 24 hrs food-deprived Sprague-Dawley rat assessed body weight gain intake level at 100 nmol, icv (reference value: 12g); format: functional
[39] = test system: Rattus norvegicus; assay: Induction of sedation in non-food-deprived Sprague-Dawley rat subjected to pre-pulse of 12 db followed by 120 db pulse assessed as animal jump height level at 13.5 and 54 mg/kg, po dosed 4.5 hrs before test; format: organism-based; conditions: in vivo
[40] = test system: Rattus norvegicus; assay: Reduction in body weight gain in 24 hrs food-deprived Sprague-Dawley rat assessed as body weight gain level at 100 umol/kg, po followed by standard chow pellets feeding and measured 6 hrs post dose (reference value: 20.3g); format: functional

IC50 [1]: 200000 nM
Compound: O=C(NC(=S)N1CCNC1=S)c1ccccc1F

IC50 [1]: 210 nM
IC50 [2]: 830 nM
Compound: COc1ccc(C(=O)/N=C2\SSC3=NCCN32)cc1

IC50 [2]: 200000 nM
Compound: O=C(NC(=S)N1CCNC1=S)c1cccc2ccccc12

IC50 [1]: 100 nM
IC50 [2]: 350 nM
Compound: O=C(/N=C1\SSC2=NCCN21)c1ccccc1F

IC50 [1]: 400 nM
IC50 [2]: 310 nM
Compound: COc1cccc(C(=O)/N=C2\SSC3=NCCN32)c1

IC50 [2]: 200000 nM
Compound: CSc1ncccc1C(=O)NC(=S)N1CCNC1=S

IC50 [2]: 2460 nM
Compound: Cc1onc(-c2ccccc2)c1C(=O)/N=C1\SSC2=NCCN21

Compound: O=C(NC(=S)N1CCNC1=S)c1ccc2ccccc2c1
Activity [3]: 19.5 g
Activity [4]: 2.5 g
Activity [5]: 19 g

IC50 [2]: 190 nM
Compound: O=C(/N=C1\SSC2=NCCN21)c1cnn(-c2ccc(Cl)cc2)c1C(F)(F)F

IC50 [1]: 190 nM
IC50 [2]: 130 nM
Compound: O=C(/N=C1\SSC2=NCCN21)c1cc2ccccc2s1
Activity [3]: 14 g
Activity [4]: 1 g
Activity [5]: 19 g
Activity [6]: 20 g
Activity [7]: 9.6 g

IC50 [1]: 200000 nM
IC50 [2]: 200000 nM
Compound: O=C(NC(=S)N1CCNC1=S)c1cnn(-c2ccc(Cl)cc2)c1C(F)(F)F

IC50 [1]: 100 nM
IC50 [2]: 330 nM
Compound: O=C(/N=C1\SSC2=NCCN21)c1ccno1

IC50 [1]: 200 nM
IC50 [2]: 370 nM
Compound: O=C(/N=C1\SSC2=NCCN21)c1ccc(F)cc1
Activity [8]: 4.03 g
Activity [6]: 8.5 g
Activity [7]: 7.93 g

IC50 [1]: 140 nM
IC50 [2]: 790 nM
Compound: Cc1cccc(C(=O)/N=C2\SSC3=NCCN32)c1

IC50 [1]: 350 nM
IC50 [2]: 460 nM
Compound: Cc1noc(C)c1C(=O)/N=C1\SSC2=NCCN21

IC50 [2]: 200000 nM
Compound: CC(C)(C)c1ccc(C(=O)NC(=S)N2CCNC2=S)cc1

IC50 [1]: 5830 nM
IC50 [2]: 2430 nM
Compound: O=C(NC(=S)N1CCNC1=S)c1ccno1

IC50 [1]: 110 nM
IC50 [2]: 250 nM
Compound: O=C(/N=C1\SSC2=NCCN21)c1ccco1

IC50 [1]: 190 nM
IC50 [2]: 410 nM
Compound: O=C(/N=C1\SSC2=NCCN21)c1ccc(F)cc1F

IC50 [1]: 100 nM
IC50 [2]: 420 nM
Compound: O=C(/N=C1\SSC2=NCCN21)c1cccs1
Activity [9]: 6 g
Activity [3]: 6 g
Activity [10]: Active
Activity [11]: 3 g
Activity [12]: Non-toxic
Activity [13]: 8 g
Activity [14]: 17 g
Activity [15]: 4 g
Activity [16]: 6 g
Activity [17]: 2 g
Activity [18]: Active
Activity [19]: 11 g
Activity [20]: Active
fold change (FC) [21]: 4
fold change (FC) [22]: 6
Activity [23]: Active
fold change (FC) [24]: 3
Activity [25]: 4 g
Activity [26]: Dose-dependent effect
Activity [27]: <=5 g
Activity [28]: 4 g
Activity [29]: Toxic
Activity [30]: Active
inhibition (INH) [31]: >=50%
Activity [32]: Active
Activity [7]: 8.1 g
Activity [33]: Non-toxic
Activity [34]: Active
Activity [35]: <=1 g
fold change (FC) [36]: 5
Activity [37]: Toxic
Activity [38]: 5 g
Activity [39]: Toxic

IC50 [1]: 270 nM
IC50 [2]: 640 nM
Compound: O=C(/N=C1\SSC2=NCCN21)c1ccc(Cl)cc1
Activity [8]: 11.4 g
Activity [6]: 18.5 g
Activity [7]: 9.88 g

IC50 [1]: 133 nM
IC50 [2]: 670 nM
Compound: O=C(/N=C1\SSC2=NCCN21)c1cccnc1

IC50 [1]: 170 nM
IC50 [2]: 570 nM
Compound: O=C(/N=C1\SSC2=NCCN21)c1ccc(C(F)(F)F)cc1

IC50 [1]: 370 nM
IC50 [2]: 650 nM
Compound: CC(C)(C)c1ccc(C(=O)/N=C2\SSC3=NCCN32)cc1

IC50 [1]: 240 nM
IC50 [2]: 220 nM
Compound: O=C(/N=C1\SSC2=NCCN21)c1cccc(F)c1
Activity [3]: 9 g
Activity [4]: 1 g
Activity [5]: 10 g
Activity [8]: 9.5 g
Activity [6]: 9.5 g
Activity [7]: 9.1 g

IC50 [1]: 170 nM
IC50 [2]: 440 nM
Compound: O=C(/N=C1\SSC2=NCCN21)c1ccccc1
Activity [40]: 6.18 g

IC50 [1]: 170 nM
IC50 [2]: 170 nM
Compound: O=C(/N=C1\SSC2=NCCN21)c1ccc2ccccc2c1
Activity [3]: 11 g
Activity [4]: 1 g
Activity [5]: 4 g
Activity [8]: 11 g
Activity [7]: 9 g
